Results reported in US20070128217A1 (priority 2003, published 2007).

Legend:
[1] = system: rabbit serum obtained by immunizing a rabbit with the SARS-CoV strain Frankfurt 1; assay type: binding; parameters: Binding of a rabbit serum to linear peptides / Binding of a rabbit serum to looped peptides / Rabbit serum linear peptides / Rabbit serum looped peptides / Binding of a rabbit serum to linear peptides of protein N of SARS-CoV Urbani (Rabbit serum linear peptides) / Binding of a rabbit serum to looped/cyclic peptides of protein N of SARS-CoV Urbani (Rabbit serum looped peptides): unit not given here
[2] = system: control sera (pooled serum of ten healthy LUMC hospital workers; commercial negative donor pooled serum from the Dutch bloodbank); assay type: binding, human; parameters: Binding of Control serum LUMC to linear peptides / Binding of Control serum Blood-bank to linear peptides / Binding of Control serum LUMC to looped peptides / Binding of Control Serum Blood-Bank to Looped peptides / Binding of Control serum LUMC to linear peptides of the protein M of SARS-CoV Urbani / Binding of Control serum Blood-bank to linear peptides of the protein M of SARS-CoV Urbani / Binding of Control serum LUMC to looped peptides of the protein M of SARS-CoV Urbani / Binding of Control Serum Blood-Bank to Looped peptides of the protein M of SARS-CoV Urbani: unit not given here
[3] = system: recombinant human anti-SARS-CoV antibody 03-018; assay type: binding; parameters: Binding of antibody 03-018 to linear peptides of the N protein of SARS-CoV Urbani / Binding of antibody 03-018 to looped/cyclic peptides of the N protein of SARS-CoV Urbani: unit not given here
[4] = system: antibodies in sera from SARS patients (sera 1a, 1b, 2, 6, 37, 62, London, SARS-yellow, SARS-green); assay type: binding, human; parameters: Binding of serum 6 to linear peptides of protein X1 of SARS-CoV Urbani / Binding of serum 37 to linear peptides of protein X1 of SARS-CoV Urbani / Binding of serum 6 to looped/cyclic peptide (PEPSCAN-ELISA) / Binding of serum 37 to looped/cyclic peptide (PEPSCAN-ELISA) / Binding of serum 37 to looped/cyclic peptides of protein X1 of SARS-CoV Urbani / Binding of serum 6 to linear peptides of protein X2 / Binding of serum 37 to linear peptides of protein X2 / Binding of serum 37 to looped/cyclic peptides of protein X2 of SARS-CoV Urbani / Binding of serum 6 to linear peptides of protein M of SARS-CoV Urbani / Binding of serum 37 to linear peptides of protein M of SARS-CoV Urbani / Binding of serum 6 to looped/cyclic peptides of protein M of SARS-CoV Urbani / Binding of serum 37 to looped/cyclic peptides of protein M of SARS-CoV Urbani / Binding of serum 6 to linear peptides of protein X3 of SARS-CoV Urbani / Binding of serum 37 to linear peptides of protein X3 of SARS-CoV Urbani / Binding of serum 37 to looped/cyclic peptides of protein X3 of SARS-CoV Urbani / Binding of serum 6 to linear peptides of protein X4 of SARS-CoV Urbani / Binding of serum 37 to linear peptides of protein X4 of SARS-CoV Urbani / Binding of serum 37 to looped/cyclic peptides of protein X4 of SARS-CoV Urbani / Binding of serum 6 to linear peptides of protein X5 of SARS-CoV Urbani / Binding of serum 37 to linear peptides of protein X5 of SARS-CoV Urbani / Binding of serum 37 to looped/cyclic peptides of protein X5 of SARS-CoV Urbani / Binding of serum 6 to linear peptides of protein N of SARS-CoV Urbani / Binding of serum 37 to linear peptides of protein N of SARS-CoV Urbani / Binding of serum 6 to linear peptide (PEPSCAN-ELISA) / Binding of serum 1a to looped/cyclic peptides of protein N of SARS-CoV Urbani / Binding of serum 1b to looped/cyclic peptides of protein N of SARS-CoV Urbani / Binding of serum 2 to looped/cyclic peptides of protein N of SARS-CoV Urbani / Binding of serum 6 to looped/cyclic peptides of protein N of SARS-CoV Urbani / Binding of serum 37 to looped/cyclic peptides of protein N of SARS-CoV Urbani / Binding of serum 62 to looped/cyclic peptides of protein N of SARS-CoV Urbani / Binding of serum London to looped/cyclic peptides of protein N of SARS-CoV Urbani / Binding of serum SARS-green to looped/cyclic peptides of protein N of SARS-CoV Urbani: unit not given here

Sequence | Binding of a rabbit serum to linear peptides of protein N of SARS-CoV Urbani (Rabbit serum linear peptides) [1] | Binding of a rabbit serum to looped/cyclic peptides of protein N of SARS-CoV Urbani (Rabbit serum looped peptides) [1] | Control Serum Blood-Bank Looped peptides [2] | Control serum Blood-bank linear peptides [2] | Control serum LUMC linear peptides [2] | Control serum LUMC looped peptides [2] | Binding of antibody 03-018 to linear peptides of the N protein of SARS-CoV Urbani [3] | Binding of antibody 03-018 to looped/cyclic peptides of the N protein of SARS-CoV Urbani [3] | Binding of serum 1a to linear peptides of protein N of SARS-CoV Urbani [4] | Binding of serum 1a to looped/cyclic peptides of protein N of SARS-CoV Urbani [4] | Binding of serum 1b to linear peptides of protein N of SARS-CoV Urbani [4] | Binding of serum 1b to looped/cyclic peptides of protein N of SARS-CoV Urbani [4] | Binding of serum 2 to linear peptides of protein N of SARS-CoV Urbani [4] | Binding of serum 2 to looped/cyclic peptides of protein N of SARS-CoV Urbani [4] | Binding of serum 6 to looped/cyclic peptides of protein N of SARS-CoV Urbani [4] | Binding of serum 37 to looped/cyclic peptides of protein N of SARS-CoV Urbani [4] | Binding of serum 62 to looped/cyclic peptides of protein N of SARS-CoV Urbani [4] | Binding of serum London to looped/cyclic peptides of protein N of SARS-CoV Urbani [4] | Binding of serum SARS-green to looped/cyclic peptides of protein N of SARS-CoV Urbani [4] | Binding of serum SARS-yellow to looped/cyclic peptides of protein N of SARS-CoV Urbani [4] | also measured
FFGMSRIGMEVTPSG | 0.2 | 0.4 | 0.5 | 0.8 | 0.7 | 0.5 | 0.1 | 0.2 | 0.3 | 0.3 | 0.1 | 0.2 | 0.2 | 0.4 | 0.1 | 0.5 | 0.4 | 0.3 | 0.1 | 0.4 | Binding of serum 6 to linear peptides of protein N of SARS-CoV Urbani [4]: 0.2; Binding of serum 37 to linear peptides of protein N of SARS-CoV Urbani [4]: 0.7; Binding of serum 62 to linear peptides of protein N of SARS-CoV Urbani [4]: 0.7; Binding of serum London to linear peptides of protein N of SARS-CoV Urbani [4]: 0.6; Binding of serum SARS-green to linear peptides of protein N of SARS-CoV Urbani [4]: 0.3; Binding of serum SARS-yellow to linear peptides of protein N of SARS-CoV Urbani [4]: 0.8
FGDQDLIRQGTDYKH | 0.1 | 0.5 |  |  |  |  | 0.1 | 0.2 |  | 0.4 |  | 0.3 |  | 0.4 | 0.2 | 0.7 | 0.6 | 0.4 | 0.7 | 0.5 | Binding of Control Serum Blood-Bank to Looped peptides [2]: 0.6; Binding of Control serum Blood-bank to linear peptides [2]: 0.8; Binding of Control serum LUMC to linear peptides [2]: 0.7; Binding of Control serum LUMC to looped peptides [2]: 0.7; Binding of serum 1a to linear peptide (PEPSCAN-ELISA) [4]: 0.3; Binding of serum 1b to linear peptide (PEPSCAN-ELISA) [4]: 0.2; Binding of serum 2 to linear peptide (PEPSCAN-ELISA) [4]: 0.2; Binding of serum 6 to linear peptide (PEPSCAN-ELISA) [4]: 0.2; Binding of serum 37 to linear peptide (PEPSCAN-ELISA) [4]: 0.7; Binding of serum 62 to linear peptide (PEPSCAN-ELISA) [4]: 0.7; Binding of serum London to linear peptide (PEPSCAN-ELISA) [4]: 0.6; Binding of serum SARS-green to linear peptide (PEPSCAN-ELISA) [4]: 0.7; Binding of serum SARS-yellow to linear peptide (PEPSCAN-ELISA) [4]: 0.6
FGMSRIGMEVTPSGT | 0.2 | 0.3 | 0.5 | 0.8 | 0.7 | 0.5 | 0.1 | 0.2 | 0.3 | 0.3 | 0.1 | 0.2 | 0.2 | 0.4 | 0.2 | 0.4 | 0.3 | 0.3 | 0.2 | 0.3 | Binding of serum 6 to linear peptides of protein N of SARS-CoV Urbani [4]: 0.2; Binding of serum 37 to linear peptides of protein N of SARS-CoV Urbani [4]: 0.8; Binding of serum 62 to linear peptides of protein N of SARS-CoV Urbani [4]: 0.7; Binding of serum London to linear peptides of protein N of SARS-CoV Urbani [4]: 0.6; Binding of serum SARS-green to linear peptides of protein N of SARS-CoV Urbani [4]: 0.3; Binding of serum SARS-yellow to linear peptides of protein N of SARS-CoV Urbani [4]: 0.7
FSRQLQNSMSGASAD | 0.4 | 0.1 | 0.4 | 0.7 | 0.6 | 0.2 | 0.1 | 0.2 | 0.2 | 0.2 | 0.1 | 0.1 | 0.1 | 0.2 | 0.1 | 0.4 | 0.2 | 0.2 | 0.0 | 0.0 | Binding of serum 6 to linear peptides of protein N of SARS-CoV Urbani [4]: 0.2; Binding of serum 37 to linear peptides of protein N of SARS-CoV Urbani [4]: 0.7; Binding of serum 62 to linear peptides of protein N of SARS-CoV Urbani [4]: 0.6; Binding of serum London to linear peptides of protein N of SARS-CoV Urbani [4]: 0.6; Binding of serum SARS-green to linear peptides of protein N of SARS-CoV Urbani [4]: 0.6; Binding of serum SARS-yellow to linear peptides of protein N of SARS-CoV Urbani [4]: 0.4
